Measurements from patent publication US4963553A, “4-[(substituted) alkylcarbonyl]-4,5-dihydro- and -4,5,6,7-tetrahydro-7-[(substituted)phenyl]pyrazolo[1,5-a]pyrimidines” (American Cyanamid Co., priority 1988, dated 1990).
Structures can show the parent of a compound that is named as a salt.

system: Brain-Specific Receptors of Rats (3H-benzodiazepine binding); test: Inhibition of the binding of 3H-benzodiazepine to brain-specific receptors of rats; parameters: species or system rat (Wistar strain, whole cortex); conditions: rat cortex P2 fraction, 3H-diazepam 1.5 nM or 3H-flunitrazepam 1.0 nM
Excerpt: Another test utilized for the determination of anxiolytic activity is the measurement of the ability of a test compound to inhibit the binding of tritiated benzodiazepines to brain-specific receptors of mammals. A modification of the method described by R. F. Squires, et al., Nature, 266 (21), 732 (Apr., 1977) and H. Mohler, et al., Science, 198, 849 (1977) was employed. […] The test compounds were solubilized in dimethylformamide, acetic acid, ethanol or hydrochloric acid. […] (1) resuspended in twice the original volume in hypotonic 50 mM Tris.HCl (pH 7.4), or (2) resuspended in one-half the original volume in hypotonic 10 mM Tris.HCl (pH 7.4) and frozen (-20° C.) until time. of use. Frozen P2 preparations were thawed and resuspended in four times the original homogenizing volume at time of assay. […] Incubation for 30 minutes proceeded in ice and was terminated by filtration, under vacuum, through glass fiber filters. The filters were washed twice with 5 ml of ice-cold 50 mM Tris.HCl (pH 7.4) and placed in scintillation vials. After drying at 50°-60° C. for 30 minutes, 10 ml of diluent was added and the radioactivity determined in a scintillation counter. Inhibition of binding was calculated by the difference between total binding and binding in the presence of test compound, divided by the total binding, X 100.

SMILES | % Inhibition (3H-benzodiazepine binding) [%]
CCCCCCN(CCCCCC)CC(=O)N1CC=C(c2cccc(C(F)(F)F)c2)n2ncc(C#N)c21 [4-[(Dihexylamino)acetyl]-4,5-dihydro-7-[3-(trifluoromethyl)phenyl]pyrazolo[1,5-a]pyrimidine-3-carbonitrile] | 24
CN1CCN(CC(=O)N2CC=C(c3cccc(C(F)(F)F)c3)n3ncc(C#N)c32)CC1 [Example 16, 4,5-Dihydro-4-[(4-methyl-1-piperazinyl)acetyl]-7-[3-(trifluoromethyl)phenyl]pyrazolo[1,5-a]pyrimidine-3-carbonitrile] | 41
N#Cc1cnn2c1N(C(=O)CN1CCN(CC(=O)N3CCCC3)CC1)CC=C2c1cccc(C(F)(F)F)c1 [Example 38, 4,5-Dihydro-4-[[4-[2-oxo-2-(1-pyrrolidinyl)ethyl]-1-piperazinyl]acetyl]-7-[3-(trifluoromethyl)phenyl]pyrazolo[1,5-a]pyrimidine-3-carbonitrile] | 33
CCOC(=O)N1CCN(CC(=O)N2CC=C(c3cccc(C(F)(F)F)c3)n3ncc(C#N)c32)CC1 [Example 42] | 45
Cl.N#Cc1cnn2c1N(C(=O)CN1CCN(c3ccc(Cl)c(Cl)c3)CC1)CC=C2c1cccc(C(F)(F)F)c1 [Example 82, 4-[[4-(3,4-Dichlorophenyl)-1-piperazinyl]acetyl]-4,5-dihydro-7-[3-(trifluoromethyl)phenyl]pyrazolo[1,5-a]pyrimidine-3-carbonitrile, hydrochloride] | 12
N#Cc1cnn2c1N(C(=O)CN1CCN(CCC3CCCCC3)CC1)CC=C2c1cccc(C(F)(F)F)c1 [Example 86, 4-[[4-(2-(Cyclohexylethyl)-1-piperazinyl]acetyl]-4,5-dihydro-7-[3-(trifluoromethyl)phenyl]pyrazolo[1,5-a]pyrimidine-3-carbonitrile, dihydrochloride] | 14
Cl.Cl.N#Cc1cnn2c1N(C(=O)CN1CCN(Cc3ccccc3)CC1)CCC2c1cccc(C(F)(F)F)c1 (stereo not drawn) [Example 89, 4,5,6,7-Tetrahydro-4-[[4-(phenylmethyl)-1-piperazinyl]acetyl]-7-[3-(trifluoromethyl)phenyl]pyrazolo[1,5-a]pyrimidine-3-carbonitrile, dihydrochloride] | 12
N#Cc1cnn2c1N(C(=O)CN1CCN(C(=O)c3ccco3)CC1)CC=C2c1cccc(C(F)(F)F)c1 [Example 96, 4-[[4-(2-Furanylcarbonyl)-1-piperazinyl]acetyl]-4.5-dihydro-7-[(3-trifluoromethyl)phenyl]pyrazolo[1,5-a]pyrimidine-3-carbonitrile, hydrochloride] | 12
N#Cc1cnn2c1N(C(=O)CN1CCNCC1)CC=C2c1cccc(C(F)(F)F)c1 [Example 98, 4.5-Dihydro-4-(1-piperazinylacetyl)-7-[3-(trifluoromethyl)phenyl]pyrazolo[1,5-a]pyrimidine-3-carbonitrile] | 25

system: Spontaneously Hypertensive Rats; test: Hypotensive activity: mean arterial blood pressure in spontaneously hypertensive rats; format: in vivo, rat (Okamoto strain, male); conditions: SHR, gavage, 100 mg/kg or less, two doses 24 h apart, measured at 28 hours; average MABP of rats used 160±1.5 mm
Protocol: The novel compounds of the invention are active hypotensive agents at nontoxic doses when administered to mammals. These compounds were tested for hypotensive activity by the method of P. S. Chan and D. W. Poorvin, Clinical and Experimental Hypertension, (6), 817-830 (1979). Male, 16 week old, spontaneously hypertensive rats of the Okamoto strain (Taconic Farms, Germantown, N.Y.) having an average means arterial blood pressure of 160±1.5 mm of mercury are used in the test. A rat is dosed by gavage with a test compound, suspended in 2% pre-boiled starch at a concentration of 50 mg/ml, at a dose of 100 mg/kg of body weight or less, with 0.9% sodium chloride loading at a dose of 25 ml/kg of body weight. A second identical dose of the test compound, without sodium chloride loading is given 24 hours later. At 28 hours after the initial dose the mean arterial blood pressure is measured by the method of Chan and Poorvin vide supra.

SMILES | MABP/mmHg (mean arterial blood pressure) [mmHg]
N#Cc1cnn2c1N(C(=O)CN1CCN(c3cccc(Cl)c3)CC1)CC=C2c1cccc(C(F)(F)F)c1 [Example 26, 4-[[4-(3-Chlorophenyl)-1-piperazinyl]acetyl]-4,5-dihydro-7-[3-(trifluoromethyl)phenyl]pyrazolo[1,5-a]pyrimidine-3-carbonitrile] | 124
N#Cc1cnn2c1N(C(=O)CN1CCN(c3ncccn3)CC1)CC=C2c1cccc(C(F)(F)F)c1 [Example 28, 4,5-Dihydro-4-[[4-(2-pyrimidinyl)-1-piperazinyl]acetyl]-7-[3-(trifluoromethyl)phenyl]pyrazolo[1,5-a]pyrimidine-3-carbonitrile] | 127
N#Cc1cnn2c1N(C(=O)CN1CCN(c3ccc(F)cc3)CC1)CC=C2c1cccc(C(F)(F)F)c1 [Example 31, 4-[[4-(4-Fluorophenyl)-1-piperazinyl]acetyl]-4,5-dihydro-7-[3-(trifluoromethyl)phenyl]pyrazolo[1,5-a]pyrimidine-3-carbonitrile] | 130
N#Cc1cnn2c1N(C(=O)CCN1CCN(Cc3ccc(Cl)cc3)CC1)CC=C2c1cccc(C(F)(F)F)c1 [Example 35, 4-[3-[4-[(Chlorophenyl)methyl]-1-piperazinyl]-1-oxopropyl]-4,5-dihydro-7-[3-(trifluoromethyl)phenyl]pyrazolo[1,5-a]pyrimidine-3-carbonitrile] | 138
N#Cc1cnn2c1N(C(=O)CN1CCN(C(c3ccc(F)cc3)c3ccc(F)cc3)CC1)CC=C2c1cccc(C(F)(F)F)c1 [Example 40, 4-[[4-[Bis(4-fluorophenyl)methyl]-1-piperazinyl]acetyl]-4,5-dihydro-7-[3-(trifluoromethyl)phenyl]pyrazolo[1,5-a]pyrimidine-3-carbonitrile] | 121
C=CCN1CCN(CC(=O)N2CC=C(c3cccc(C(F)(F)F)c3)n3ncc(C#N)c32)CC1 [Example 47, 4,5-Dihydro-4-[[4-(2-propenyl)-1-piperazinyl]acetyl]-7-[3-(trifluoromethyl)phenyl]pyrazolo[1,5-a]pyrimidine-3-carbonitrile] | 139
CC(C)N1CCN(CC(=O)N2CC=C(c3cccc(C(F)(F)F)c3)n3ncc(C#N)c32)CC1 [Example 51, 4,5-Dihydro-4-[[4-(1-methylethyl)-1-piperazinyl]acetyl]-7-[3-(trifluoromethyl)phenyl]pyrazolo[1,5-a]pyrimidine-3-carbonitrile] | 139
N#Cc1cnn2c1N(C(=O)CN1CCN(C3CCC3)CC1)CC=C2c1cccc(C(F)(F)F)c1 [Example 52, 4-[(4-Cyclobutyl-1-piperazinyl)acetyl]-4,5-dihydro-7-[3-(trifluoromethyl)phenyl)pyrazolo[1,5-a]pyrimidine-3-carbonitrile] | 124

same assay, conditions: SHR, gavage, 100 mg/kg or less, two doses 24 h apart, measured at 28 hours; average MABP of rats used 160±1.5 mm; dihydrochloride, 100 mg/kg

SMILES | MABP/mmHg (mean arterial blood pressure) [mmHg]
N#Cc1cnn2c1N(C(=O)CN1CCN(Cc3ccccc3)CC1)CC=C2c1cccc(C(F)(F)F)c1 [Example 78, 4,5-Dihydro-4-[[4-(phenylmethyl)-1-piperazinyl]acetyl]-7-[3-(trifluoromethyl)phenyl]pyroazolo[1,5-a]pyrimidine-3-carbonitrile, dihydrochloride] | 137
